Among the data in publication PMC10896213, “Identification of the KIF18A alpha-4 helix as a therapeutic target for chromosomally unstable tumor cells” (Frontiers in Molecular Biosciences, 2023) are IC50 values, retold here.

This test addresses T1, KIF18A (Homo sapiens, UniProt Q8NI77).
T1 construct: KIF18A (1−417); with pig microtubules (tubulin)
T1 sequence (Q8NI77 1-417): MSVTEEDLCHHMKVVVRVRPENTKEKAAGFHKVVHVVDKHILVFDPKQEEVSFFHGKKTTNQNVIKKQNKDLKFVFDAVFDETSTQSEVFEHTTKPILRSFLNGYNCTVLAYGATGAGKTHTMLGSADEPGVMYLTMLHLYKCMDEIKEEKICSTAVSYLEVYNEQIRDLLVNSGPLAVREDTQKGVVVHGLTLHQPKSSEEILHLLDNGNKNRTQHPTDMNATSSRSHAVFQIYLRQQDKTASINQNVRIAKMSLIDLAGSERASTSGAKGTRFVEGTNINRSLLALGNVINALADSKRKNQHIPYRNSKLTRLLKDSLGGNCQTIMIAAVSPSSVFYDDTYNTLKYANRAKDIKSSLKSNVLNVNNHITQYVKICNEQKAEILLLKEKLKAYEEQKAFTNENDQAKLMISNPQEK
Description: microtubule-stimulated ATPase assay (ADP-Glo). The class given is biochemical.

A word on the IC50: it is the concentration needed to halve the response being measured. As for `Cc1cc(NC(=O)c2cnc(NS(=O)(=O)CCO)cc2N2CCC3(CC2)CC3)nc(N2CCC(F)(F)CC2)n1` [Compound 3], the IC50 amounted to 8.2 nM. In other words, the single-digit nanomolar range.
